Laboratory results reported in patent US6492515B2, “4,4-disubstituted-1, 4-dihydro-2H-3, 1-benzoxazin-2-ones useful as HIV reverse transcriptase inhibitors and intermediates and processes for making the same” (Bristol-Myers Squibb Pharma Company, priority 1996, dated 2002).

Key:
[1] = molecular target: HIV-1 reverse transcriptase (Human immunodeficiency virus type 1 group M subtype B, UniProt P04585); test: Inhibition of HIV reverse transcriptase (statement in background); format: biochemical; details: metabolite of NNRTI from rat, monkey and human microsomes

Row | melting point [°C] | SMILES | inhibitor of HIV reverse transcriptase [1]
1 | 138 to 138.5 | Cc1ccc2c(c1)C(C#CC1CC1)(C(C)C)OC(=O)N2 (racemic) [Example 5, (+/−)-4-Cyclopropylethynyl-4-isopropyl-6-methyl-1,4-dihydro-2H-3,1-benzoxazin-2-one] | 
2 | 169 to 171 | O=C1Nc2c(F)cc(Cl)cc2C(C#CC2CC2)(C(F)(F)F)O1 (racemic) [Example 4, (+/−)-6-Chloro-4-(cyclopropylethynyl)-8-fluoro-4-(trifluoromethyl)-1,4-dihydro-2H-3,1-benzoxazin-2-one] | 
3 | 197 to 200 | CC(=O)c1ccc2c(c1)C(C#CC1CC1)(C(F)(F)F)OC(=O)N2 (racemic) [Example 7, (+/−)-6-Acetyl-4-cyclopropylethynyl-4-trifluoromethyl-1,4-dihydro-2H-3,1-benzoxazin-2-one] | 
4 | 185.8 | O=C1Nc2ccc(Cl)cc2[C@@](C#Cc2ccccn2)(C(F)(F)F)O1 [Example 23] | 
5 |  | O=C1Nc2c(O)cc(Cl)cc2[C@@](C#CC2CC2)(C(F)(F)F)O1 [Example 2, (−)-6-Chloro-4-(cyclopropylethynyl)-8-hydroxy-4-(trifluoromethyl)-1,4-dihydro-2H-3,1-benzoxazin-2-one] | potent inhibitor
